Measured values published in US20040242508A1, “Novel hydroxyalkyl indolocarbazole derivatives, preparation method and pharmaceutical compositions containing the same” (priority 2001, published 2004).

What was measured:
CDK5/p25 complex = CDK5/p25 complex (Homo sapiens, UniProt Q00535); experiment: Inhibitory activity in respect of CDK5; format: biochemical; conditions: CDK5 activated by p25 (1/1 mixture), measured as for CDK1/cyclin B
Method: CDK5 was expressed in E. coli in the form of a GST (Glutathione-S-transferase) fusion protein and purified on a glutathione-agarose affinity column. CDK5 is then activated by p25 (1/1 mixture), prepared in the same manner. The enzymatic activity of the CDK5/p25 complex is measured as described above for CDK1/cyclin B. The IC50 values are estimated from dose-response curves.

CDK1/cyclin B = experiment: Inhibitory activity in respect of CDK-1; format: biochemical, starfish (Marthasterias glacialis); conditions: histone H1 substrate, 15 μM ATP, 10 minutes at 30° C.
Method: The enzyme was purified from a starfish (Marthasterias glacialis) oocyte homogenate at M phase as described in Eur. J. Biochem, 1997, 243, 527-536 and J. Biol. Chem.,1999, 274, 11977-11986. The reaction mixture comprises, in a volume of 30 μl: 1 mg/ml of histone H1 as substrate, 15 μM [γ-^32P]ATP (3000 Ci/mmol, 1 mCi/ml), 15 mM MgCl2, 60 mM β-glycerophosphate, 15 mM p-nitrophenylphosphate, 25 mM MOPS pH=7.2, 5 mM EGTA, 1 mM DTT, 1 mM sodium vanadate, and the inhibitor at a given concentration. After 10 minutes' incubation at 30° C., 25 μl of the reaction mixture are removed and treated as described above in the GSK-3 protocol. The IC50 values are estimated from dose-response curves.

[1] = biological target: T1, Glycogen synthase kinase 3 (Rattus norvegicus, UniProt P18266); experiment: Inhibitory activity in respect of GSK-3; format: biochemical; conditions: GS-1 peptide substrate, 15 μM ATP, 30 minutes at 30° C.
T1 construct: made in house; host or cells: Sf9 insect cells
T1 sequence (P18266 whole entry): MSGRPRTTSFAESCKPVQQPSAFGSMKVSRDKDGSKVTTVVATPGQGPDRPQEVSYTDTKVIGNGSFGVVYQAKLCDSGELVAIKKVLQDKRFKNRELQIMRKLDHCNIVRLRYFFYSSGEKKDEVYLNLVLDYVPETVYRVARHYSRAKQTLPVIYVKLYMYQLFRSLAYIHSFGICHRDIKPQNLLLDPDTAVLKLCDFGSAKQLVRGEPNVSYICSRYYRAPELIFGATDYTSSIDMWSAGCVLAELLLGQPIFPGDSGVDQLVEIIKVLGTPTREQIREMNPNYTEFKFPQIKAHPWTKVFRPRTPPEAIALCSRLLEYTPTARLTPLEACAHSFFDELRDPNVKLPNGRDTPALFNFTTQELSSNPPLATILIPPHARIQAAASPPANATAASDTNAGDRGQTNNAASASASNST
Method: Glycogen synthase kinase 3 was purified starting from Sf9 cells transfected as described in Eur. J. Biochem., 1992, 305-311. The reaction mixture comprises, in a final volume of 30 μl: 1 mg/ml of BSA, 10 mM DTT, 6.7 μM GS-1 peptide as substrate, 15 μM [γ-^32P]ATP (3000 Ci/mmol, 1 mCi/ml), 10 mM MgCl2, 1 mM EGTA, 25mM Tris-HCl pH=7.5, 50 μg/ml of heparin, and the inhibitor at a given concentration. After 30 minutes at 30° C., 25 μl of the mixture are deposited on Whatman® P81 phosphocellulose paper filters, which are then washed 5 times with 10 ml of phosphoric acid (10 ml/l). The radioactivity of the filters is then counted in the presence of 1 ml of scintillation liquid. The IC50 values are estimated from dose-response curves.

Chain of CDK5/p25 complex (Q00535 whole entry, species assumed, the tested form may be a part): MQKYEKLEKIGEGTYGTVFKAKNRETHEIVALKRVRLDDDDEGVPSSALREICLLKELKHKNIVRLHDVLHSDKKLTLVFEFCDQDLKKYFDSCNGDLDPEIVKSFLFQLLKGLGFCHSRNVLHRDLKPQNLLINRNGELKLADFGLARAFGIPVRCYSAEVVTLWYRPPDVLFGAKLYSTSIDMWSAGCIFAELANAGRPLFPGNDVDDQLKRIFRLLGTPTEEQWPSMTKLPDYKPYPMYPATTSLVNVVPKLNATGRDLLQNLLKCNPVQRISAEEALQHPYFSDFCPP
Chain of CDK5/p25 complex (Q15078 99-307 partner limits assumed, species assumed): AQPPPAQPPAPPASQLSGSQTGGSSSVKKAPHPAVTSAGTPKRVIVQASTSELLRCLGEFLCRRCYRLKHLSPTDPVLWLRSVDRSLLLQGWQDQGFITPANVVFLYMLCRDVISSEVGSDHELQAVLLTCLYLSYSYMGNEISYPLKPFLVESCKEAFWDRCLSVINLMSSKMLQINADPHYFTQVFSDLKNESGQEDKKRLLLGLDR

Work on CO[C@H]1[C@H](O)[C@@H](O)[C@H](n2c3ccc(CO)cc3c3c4c(c5c6cc(CO)ccc6[nH]c5c32)C(=O)NC4=O)O[C@@H]1CO [Example 1, 3,9-bis(hydroxymethyl)-1 2-(4-O-methyl-β-D-glucopyranosyl)-12,13-dihydro-5H-indolo[2,3-a]pyrrolo[3,4-c]carbazole-5,7(6H)-dione] yielded an IC50 (CDK5/p25 complex) of over 5000 nM, an IC50 (CDK1/cyclin B) of over 5000 nM and an IC50 [1] of 30 nM.
